Reference: PubChem BioAssay AID258 (DTP/NCI, 2004)
Toxic doses and inconclusive results are not listed.

Test system: CD2F1 mice, L1210 leukemia sc, survival T/C
Experiment: NCI In Vivo Anticancer Drug Screen. Data for tumor model L1210 Leukemia (subcutaneous) in CD2F1 (CDF1) mice
Details: endpoint: median survival time, higher = longer survival
Outline: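 Transplantable tumor-bearing mice were treated with compound; survival or tumor size measured and expressed as treated-group value (T) divided by vehicle-treated control value (C).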

For CC(=O)Nc1ccc2nc3ccc(NC(C)=O)cc3[n+](-c3ccccc3)c2c1, the T/C (dose: 8.4 mg/kg/injection, schedule: Q01DX Z (ip), vehicle: saline) was 90 % of control, the T/C (dose: 14.0 mg/kg/injection, schedule: Q01DX Z (ip), vehicle: saline) was 95 % of control and the T/C (dose: 14.0 mg/kg/injection, schedule: Q01DX Z (sc), vehicle: saline) was 100 % of control. The T/C (dose: 23.0 mg/kg/injection, schedule: Q01DX Z (ip), vehicle: saline) was 90 % of control, the T/C (dose: 23.0 mg/kg/injection, schedule: Q01DX Z (sc), vehicle: saline) was 100 % of control and the T/C (dose: 39.0 mg/kg/injection, schedule: Q01DX Z (ip), vehicle: saline) was 100 % of control. For the same compound, the T/C (dose: 39.0 mg/kg/injection, schedule: Q01DX Z (sc), vehicle: saline) was 100 % of control, the T/C (dose: 65.0 mg/kg/injection, schedule: Q01DX Z (ip), vehicle: saline) was 100 % of control and the T/C (dose: 65.0 mg/kg/injection, schedule: Q01DX Z (sc), vehicle: saline) was 105 % of control. For the same compound, the T/C (dose: 108.0 mg/kg/injection, schedule: Q01DX Z (ip), vehicle: saline) was 100 % of control, the T/C (dose: 108.0 mg/kg/injection, schedule: Q01DX Z (sc), vehicle: saline) was 100 % of control and the T/C (dose: 180.0 mg/kg/injection, schedule: Q01DX Z (sc), vehicle: saline) was 110 % of control.

N=C(N)Cc1ccc(NC(=O)c2ccc(C(=O)Nc3ccc(CC(=N)N)cc3)cc2)cc1 was tested, and the T/C (dose: 8.4 mg/kg/injection, schedule: Q01DX Z (sc), vehicle: water) was 110 % of control, the T/C (dose: 14.0 mg/kg/injection, schedule: Q01DX Z (sc), vehicle: water) was 105 % of control and the T/C (dose: 23.0 mg/kg/injection, schedule: Q01DX Z (sc), vehicle: water) was 115 % of control. The T/C (dose: 39.0 mg/kg/injection, schedule: Q01DX Z (sc), vehicle: water) was 110 % of control and the T/C (dose: 65.0 mg/kg/injection, schedule: Q01DX Z (sc), vehicle: water) was 115 % of control.

With CC(=O)OCC(=O)[C@@]1(O)CC[C@H]2[C@@H]3CCC4=CC(=O)CC[C@]4(C)[C@@]3(F)[C@@H](O)C[C@@]21C the T/C (dose: 300.0 mg/kg/injection, schedule: Q01DX Z (sc), vehicle: methylcellulose (MC)) was 121 % of control and the T/C (dose: 500.0 mg/kg/injection, schedule: Q01DX Z (sc), vehicle: methylcellulose (MC)) was 115 % of control.

In the case of CN(C)c1ccc(/C=C2\C=Cc3ccccc32)cc1, the T/C (dose: 39.0 mg/kg/injection, schedule: Q01DX Z (sc), vehicle: carboxymethylcellulose (CMC)) is reported as 100 % of control, the T/C (dose: 65.0 mg/kg/injection, schedule: Q01DX Z (sc), vehicle: carboxymethylcellulose (CMC)) is reported as 100 % of control and the T/C (dose: 108.0 mg/kg/injection, schedule: Q01DX Z (sc), vehicle: carboxymethylcellulose (CMC)) is reported as 100 % of control. For the same compound, the T/C (dose: 180.0 mg/kg/injection, schedule: Q01DX Z (sc), vehicle: carboxymethylcellulose (CMC)) was 100 % of control and the T/C (dose: 300.0 mg/kg/injection, schedule: Q01DX Z (sc), vehicle: carboxymethylcellulose (CMC)) was 100 % of control.

In the case of CSC1SCC2C(=O)N(C)C(C(C)C)C(=O)OCC(NC(=O)c3cnc4ccccc4n3)C(=O)NC(C)C(=O)N(C)C1C(=O)N(C)C(C(C)C)C(=O)OCC(NC(=O)c1cnc3ccccc3n1)C(=O)NC(C)C(=O)N2C (centres undefined), the T/C (dose: 7.5 micrograms/kg/injection, schedule: Q01DX009 (ip), vehicle: Klucel (hydroxypropylcellulose) (HPC)) is reported as 98 % of control, the T/C (dose: 15.0 micrograms/kg/injection, schedule: Q01DX009 (ip), vehicle: Klucel (hydroxypropylcellulose) (HPC)) is reported as 97 % of control and the T/C (dose: 30.0 micrograms/kg/injection, schedule: Q01DX009 (ip), vehicle: Klucel (hydroxypropylcellulose) (HPC)) is reported as 96 % of control. The T/C (dose: 60.0 micrograms/kg/injection, schedule: Q01DX009 (ip), vehicle: Klucel (hydroxypropylcellulose) (HPC)) was 100 % of control and the T/C (dose: 120.0 micrograms/kg/injection, schedule: Q01DX009 (ip), vehicle: Klucel (hydroxypropylcellulose) (HPC)) was 102 % of control.

For NCCCN=c1ccc2c3c1c(O)c1c(O)ccc(=O)c1c3[nH]n2CCNCCO, the T/C (dose: 0.8 mg/kg/injection, schedule: Q03HX024 (ip), vehicle: saline) was 118 % of control, the T/C (dose: 2.2 mg/kg/injection, schedule: Q03HX024 (ip), vehicle: saline) was 161 % of control and the T/C (dose: 2.34 mg/kg/injection, schedule: Q03HX008 (ip), vehicle: saline) was 124 % of control. For the same compound, the T/C (dose: 3.46 mg/kg/injection, schedule: Q01DX009 (ip), vehicle: water) was 114 % of control, the T/C (dose: 3.6 mg/kg/injection, schedule: Q03HX024 (ip), vehicle: saline) was 212 % of control and the T/C (dose: 3.7 mg/kg/injection, schedule: Q01DX005 (ip), vehicle: saline) was 121 % of control. The T/C (dose: 3.7 mg/kg/injection, schedule: Q04DX003 (ip), vehicle: saline) was 115 % of control, the T/C (dose: 5.7 mg/kg/injection, schedule: Q01DX009 (ip), vehicle: water) was 121 % of control and the T/C (dose: 6.2 mg/kg/injection, schedule: Q04DX003 (ip), vehicle: saline) was 110 % of control. The T/C (dose: 6.4 mg/kg/injection, schedule: Q03HX008 (ip), vehicle: saline) was 175 % of control, the T/C (dose: 9.6 mg/kg/injection, schedule: Q01DX009 (ip), vehicle: saline) was 207 % of control and the T/C (dose: 10.4 mg/kg/injection, schedule: Q01DX005 (ip), vehicle: saline) was 182 % of control. For the same compound, the T/C (dose: 10.4 mg/kg/injection, schedule: Q03HX008 (ip), vehicle: saline) was 86 % of control, the T/C (dose: 11.2 mg/kg/injection, schedule: Q01DX001 (ip), vehicle: saline) was 120 % of control and the T/C (dose: 16.0 mg/kg/injection, schedule: Q01DX009 (ip), vehicle: saline) was 121 % of control. For the same compound, the T/C (dose: 16.0 mg/kg/injection, schedule: Q01DX009 (ip), vehicle: water) was 208 % of control, the T/C (dose: 17.3 mg/kg/injection, schedule: Q01DX005 (ip), vehicle: saline) was 215 % of control and the T/C (dose: 17.3 mg/kg/injection, schedule: Q04DX003 (ip), vehicle: saline) was 153 % of control. For the same compound, the T/C (dose: 18.7 mg/kg/injection, schedule: Q01DX001 (ip), vehicle: saline) was 119 % of control, the T/C (dose: 26.7 mg/kg/injection, schedule: Q01DX009 (ip), vehicle: saline) was 95 % of control and the T/C (dose: 26.7 mg/kg/injection, schedule: Q01DX009 (ip), vehicle: water) was 96 % of control. The T/C (dose: 28.8 mg/kg/injection, schedule: Q01DX005 (ip), vehicle: saline) was 107 % of control, the T/C (dose: 28.8 mg/kg/injection, schedule: Q04DX003 (ip), vehicle: saline) was 182 % of control and the T/C (dose: 48.0 mg/kg/injection, schedule: Q04DX003 (ip), vehicle: saline) was 268 % of control. The T/C (dose: 51.3 mg/kg/injection, schedule: Q01DX001 (ip), vehicle: saline) was 153 % of control, the T/C (dose: 80.0 mg/kg/injection, schedule: Q04DX003 (ip), vehicle: saline) was 118 % of control and the T/C (dose: 86.4 mg/kg/injection, schedule: Q01DX001 (ip), vehicle: saline) was 225 % of control.

For NC(=O)c1ncn2c(=O)n(CCCl)nnc12, the T/C (dose: 1.56 mg/kg/injection, schedule: Q01DX009 (ip), vehicle: suspension in saline) was 123 % of control, the T/C (dose: 6.25 mg/kg/injection, schedule: Q01DX009 (ip), vehicle: suspension in saline) was 195 % of control and the T/C (dose: 12.5 mg/kg/injection, schedule: Q01DX009 (ip), vehicle: suspension in saline) was 309 % of control. The T/C (dose: 25.0 mg/kg/injection, schedule: Q01DX009 (ip), vehicle: suspension in saline) was 206 % of control and the T/C (dose: 50.0 mg/kg/injection, schedule: Q01DX009 (ip), vehicle: suspension in saline) was 100 % of control.

In the case of ONc1ncnc2nc[nH]c12, the T/C (dose: 50.0 mg/kg/injection, schedule: Q01DX Z (sc), vehicle: steriod suspending solution) is reported as 112 % of control, the T/C (dose: 100.0 mg/kg/injection, schedule: Q01DX Z (sc), vehicle: steriod suspending solution) is reported as 118 % of control and the T/C (dose: 400.0 mg/kg/injection, schedule: Q01DX Z (sc), vehicle: steriod suspending solution) is reported as 168 % of control.
